Measurements: ChEMBL document CHEMBL1201862, “PubChem BioAssay data set” (2004)
Activity calls are given as the source filed them.

Key:
[1] = biological target: T1, Intestinal-type alkaline phosphatase (Mus musculus, UniProt P24822); test: PubChem AID 488785; type: functional
[2] = biological target: Intestinal-type alkaline phosphatase (Homo sapiens, UniProt P09923); test: activation of human intestinal alkaline phosphatase – biochemical, dose response (AID 488873); type: functional
[3] = biological target: T2, Alkaline phosphatase, tissue-nonspecific isozyme (Homo sapiens, UniProt P05186); test: TNAP enzyme inhibition by screening hits, dose response, selectivity assay for mouse IAP inhibitor project, biochemical, human TNAP, uHTS hits (AID 488906); type: functional
T2 sequence (P05186 whole entry): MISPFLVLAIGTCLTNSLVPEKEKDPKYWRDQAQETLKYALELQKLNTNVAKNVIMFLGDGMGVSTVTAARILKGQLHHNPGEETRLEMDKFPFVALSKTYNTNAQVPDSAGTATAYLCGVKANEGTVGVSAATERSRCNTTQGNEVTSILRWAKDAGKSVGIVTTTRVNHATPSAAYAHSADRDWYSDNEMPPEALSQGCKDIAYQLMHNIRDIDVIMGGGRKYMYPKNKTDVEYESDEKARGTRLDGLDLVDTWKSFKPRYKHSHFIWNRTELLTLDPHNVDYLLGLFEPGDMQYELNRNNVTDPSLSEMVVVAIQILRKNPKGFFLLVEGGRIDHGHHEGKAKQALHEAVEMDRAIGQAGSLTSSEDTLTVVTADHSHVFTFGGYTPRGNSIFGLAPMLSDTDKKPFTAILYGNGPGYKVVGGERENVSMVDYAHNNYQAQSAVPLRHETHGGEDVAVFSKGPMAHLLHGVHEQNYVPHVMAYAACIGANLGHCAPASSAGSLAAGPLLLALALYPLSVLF

Large T antigen = Large T antigen (Simian virus 40, UniProt P03070); type: functional, Betapolyomavirus macacae;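 note: Confirmatory-stage PubChem screen for compounds that inhibit SV40 T antigen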
[4] = biological target: T2, Alkaline phosphatase, tissue-nonspecific isozyme; test: activation of tissue-nonspecific alkaline phosphatase – biochemical, TNAP isozyme, mouse IAP uHTS hits, selectivity assay for mouse IAP activator project, dose response (AID 488880); type: functional
[5] = biological target: T3, Histone-lysine N-methyltransferase NSD2 (Homo sapiens, UniProt O96028); type: biochemical
T3 sequence (O96028 whole entry): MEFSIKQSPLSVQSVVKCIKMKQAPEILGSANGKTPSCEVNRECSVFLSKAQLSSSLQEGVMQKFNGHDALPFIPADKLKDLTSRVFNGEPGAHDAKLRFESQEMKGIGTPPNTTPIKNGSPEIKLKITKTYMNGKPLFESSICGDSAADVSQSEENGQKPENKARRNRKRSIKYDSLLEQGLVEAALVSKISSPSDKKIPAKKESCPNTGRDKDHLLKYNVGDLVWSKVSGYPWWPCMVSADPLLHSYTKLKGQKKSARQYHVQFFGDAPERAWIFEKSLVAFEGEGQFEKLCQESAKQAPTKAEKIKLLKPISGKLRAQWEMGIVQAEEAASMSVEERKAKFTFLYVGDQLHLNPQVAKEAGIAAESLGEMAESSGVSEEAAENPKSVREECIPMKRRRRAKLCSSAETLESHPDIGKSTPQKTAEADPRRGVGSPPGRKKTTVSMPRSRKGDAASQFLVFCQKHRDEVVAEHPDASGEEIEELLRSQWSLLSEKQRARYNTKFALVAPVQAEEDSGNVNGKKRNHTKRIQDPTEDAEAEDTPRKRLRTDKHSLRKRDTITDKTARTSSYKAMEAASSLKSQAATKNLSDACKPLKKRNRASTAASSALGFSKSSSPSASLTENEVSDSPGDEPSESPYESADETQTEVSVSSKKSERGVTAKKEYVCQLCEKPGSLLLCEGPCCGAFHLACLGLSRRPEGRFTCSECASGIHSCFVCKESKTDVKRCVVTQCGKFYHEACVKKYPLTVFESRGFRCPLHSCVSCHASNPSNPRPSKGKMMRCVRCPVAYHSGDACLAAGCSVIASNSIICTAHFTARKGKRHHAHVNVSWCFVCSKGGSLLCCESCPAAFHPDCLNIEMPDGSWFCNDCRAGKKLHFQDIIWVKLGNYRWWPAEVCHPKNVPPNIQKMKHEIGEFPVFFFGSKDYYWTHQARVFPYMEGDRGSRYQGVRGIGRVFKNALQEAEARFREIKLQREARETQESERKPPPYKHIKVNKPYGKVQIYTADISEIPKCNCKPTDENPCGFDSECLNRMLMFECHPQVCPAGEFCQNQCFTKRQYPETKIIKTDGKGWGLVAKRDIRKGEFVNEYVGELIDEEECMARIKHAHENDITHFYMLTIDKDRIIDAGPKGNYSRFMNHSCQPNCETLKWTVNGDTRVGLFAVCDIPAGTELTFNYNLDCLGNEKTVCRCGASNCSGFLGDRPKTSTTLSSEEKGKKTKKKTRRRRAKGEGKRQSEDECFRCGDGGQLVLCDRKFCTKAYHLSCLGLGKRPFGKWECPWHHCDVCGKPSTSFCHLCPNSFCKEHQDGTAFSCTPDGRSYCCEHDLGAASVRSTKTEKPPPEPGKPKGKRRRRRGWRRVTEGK

[6] = biological target: T1, Intestinal-type alkaline phosphatase; test: mouse intestinal alkaline phosphatase activators, dose response, biochemical, luminescence, uHTS hits (AID 488783); type: functional
Ion channel NompC = Ion channel NompC (Danio rerio, UniProt Q7T1G6); test: Dose response cell-based high-throughput screening assay for agonists of the transient receptor potential channel N1 (TRPN1). [Related pubchem assays (depositor defined):AID1424, AID1448]; type: functional
cells [7] = type: functional, cell-based
cells [8] = type: functional, cell-based; remark: listed apart in the source
Mucolipin-3 = biological target: T4, Mucolipin-3 (Homo sapiens, UniProt Q8TDD5); test: Fluorescence counterscreen assay for […] agonists: dose response cell-based high-throughput screening assay to identify agonists of the transient receptor potential channel ML3 (TRPML3). [Related pubchem assays: 1424, 1448 ]; type: functional
T4 sequence (Q8TDD5 whole entry): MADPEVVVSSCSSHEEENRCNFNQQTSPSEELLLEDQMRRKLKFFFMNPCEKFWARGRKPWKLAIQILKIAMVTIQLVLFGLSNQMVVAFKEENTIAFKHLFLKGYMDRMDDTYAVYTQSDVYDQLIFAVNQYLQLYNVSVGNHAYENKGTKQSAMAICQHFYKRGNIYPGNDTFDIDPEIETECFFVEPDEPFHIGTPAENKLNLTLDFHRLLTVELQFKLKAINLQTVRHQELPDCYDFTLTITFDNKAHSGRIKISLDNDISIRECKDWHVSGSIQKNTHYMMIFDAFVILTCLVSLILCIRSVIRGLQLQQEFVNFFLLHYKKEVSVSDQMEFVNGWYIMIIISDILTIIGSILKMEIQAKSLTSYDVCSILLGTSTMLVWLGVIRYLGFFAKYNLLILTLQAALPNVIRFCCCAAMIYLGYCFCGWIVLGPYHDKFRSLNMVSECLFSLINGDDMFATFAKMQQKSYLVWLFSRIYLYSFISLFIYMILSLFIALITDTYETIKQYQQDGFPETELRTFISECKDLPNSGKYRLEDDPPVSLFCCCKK

Nonstructural protein 1 = Nonstructural protein 1 (Influenza A virus, UniProt Q194T2); type: functional, Influenza A virus (A/California/07/2009(H1N1))
[9] = biological target: Alkaline phosphatase, placental type (Homo sapiens, UniProt P05187); test: human placental alkaline phosphatase inhibition – biochemical, luminescence, confirmation (AID 1512); type: functional
[10] = biological target: T2, Alkaline phosphatase, tissue-nonspecific isozyme; test: potency against alkaline phosphatase TNAP – biochemical, luminescent, dose response, SAR follow-up (AID 1056)

Sequence of Intestinal-type alkaline phosphatase (Homo sapiens, UniProt P09923) (P09923 whole entry): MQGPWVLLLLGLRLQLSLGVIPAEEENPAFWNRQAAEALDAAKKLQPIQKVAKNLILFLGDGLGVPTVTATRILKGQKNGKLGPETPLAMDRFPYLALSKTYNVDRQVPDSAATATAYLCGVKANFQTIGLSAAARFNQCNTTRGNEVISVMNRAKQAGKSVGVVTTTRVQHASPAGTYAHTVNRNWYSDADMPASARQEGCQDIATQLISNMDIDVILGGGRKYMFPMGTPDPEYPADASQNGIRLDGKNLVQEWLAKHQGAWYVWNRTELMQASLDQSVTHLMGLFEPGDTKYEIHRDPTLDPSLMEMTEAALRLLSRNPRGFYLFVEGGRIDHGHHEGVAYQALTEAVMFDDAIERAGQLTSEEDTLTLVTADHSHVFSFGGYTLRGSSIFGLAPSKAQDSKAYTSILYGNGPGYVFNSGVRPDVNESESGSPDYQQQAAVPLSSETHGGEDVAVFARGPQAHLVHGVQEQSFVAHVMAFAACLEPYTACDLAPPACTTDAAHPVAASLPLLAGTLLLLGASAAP
T1 sequence (P24822 whole entry): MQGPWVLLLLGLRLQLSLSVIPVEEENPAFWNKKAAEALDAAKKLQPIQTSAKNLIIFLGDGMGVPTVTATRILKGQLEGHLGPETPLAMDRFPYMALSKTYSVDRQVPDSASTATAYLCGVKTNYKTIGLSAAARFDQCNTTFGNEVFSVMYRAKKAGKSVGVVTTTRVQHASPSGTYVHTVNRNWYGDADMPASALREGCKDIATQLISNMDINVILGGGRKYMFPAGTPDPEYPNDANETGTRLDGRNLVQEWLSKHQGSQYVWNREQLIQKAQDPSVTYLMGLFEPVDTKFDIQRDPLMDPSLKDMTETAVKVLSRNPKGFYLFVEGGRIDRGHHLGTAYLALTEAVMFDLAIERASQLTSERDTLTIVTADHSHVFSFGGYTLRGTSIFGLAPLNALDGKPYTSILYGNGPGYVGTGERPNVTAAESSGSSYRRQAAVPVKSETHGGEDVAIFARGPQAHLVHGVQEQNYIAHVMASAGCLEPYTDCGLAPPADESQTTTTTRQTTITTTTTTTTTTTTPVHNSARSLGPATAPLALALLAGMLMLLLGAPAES
Sequence of Nonstructural protein 1 (Q194T2 whole entry): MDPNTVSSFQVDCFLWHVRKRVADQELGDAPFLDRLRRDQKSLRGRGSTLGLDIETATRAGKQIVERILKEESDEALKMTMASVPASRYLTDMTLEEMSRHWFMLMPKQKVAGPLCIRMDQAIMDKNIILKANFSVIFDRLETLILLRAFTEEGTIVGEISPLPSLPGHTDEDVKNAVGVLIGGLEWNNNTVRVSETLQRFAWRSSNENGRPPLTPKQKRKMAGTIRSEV
Sequence of Alkaline phosphatase, placental type (P05187 whole entry): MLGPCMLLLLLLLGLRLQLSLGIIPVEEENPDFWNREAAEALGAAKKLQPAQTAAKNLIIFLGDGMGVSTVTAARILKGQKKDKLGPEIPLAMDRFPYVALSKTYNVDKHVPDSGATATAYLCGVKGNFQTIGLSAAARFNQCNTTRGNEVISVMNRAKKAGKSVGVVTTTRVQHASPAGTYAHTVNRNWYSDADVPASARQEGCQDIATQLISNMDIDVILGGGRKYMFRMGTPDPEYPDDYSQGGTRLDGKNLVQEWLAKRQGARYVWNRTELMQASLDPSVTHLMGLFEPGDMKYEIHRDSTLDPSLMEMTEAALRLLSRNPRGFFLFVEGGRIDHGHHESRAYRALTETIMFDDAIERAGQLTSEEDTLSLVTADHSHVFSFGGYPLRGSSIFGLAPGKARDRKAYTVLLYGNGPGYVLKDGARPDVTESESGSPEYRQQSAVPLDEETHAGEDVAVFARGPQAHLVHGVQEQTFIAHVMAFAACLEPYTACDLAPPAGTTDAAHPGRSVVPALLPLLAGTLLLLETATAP
Sequence of Large T antigen (P03070 whole entry): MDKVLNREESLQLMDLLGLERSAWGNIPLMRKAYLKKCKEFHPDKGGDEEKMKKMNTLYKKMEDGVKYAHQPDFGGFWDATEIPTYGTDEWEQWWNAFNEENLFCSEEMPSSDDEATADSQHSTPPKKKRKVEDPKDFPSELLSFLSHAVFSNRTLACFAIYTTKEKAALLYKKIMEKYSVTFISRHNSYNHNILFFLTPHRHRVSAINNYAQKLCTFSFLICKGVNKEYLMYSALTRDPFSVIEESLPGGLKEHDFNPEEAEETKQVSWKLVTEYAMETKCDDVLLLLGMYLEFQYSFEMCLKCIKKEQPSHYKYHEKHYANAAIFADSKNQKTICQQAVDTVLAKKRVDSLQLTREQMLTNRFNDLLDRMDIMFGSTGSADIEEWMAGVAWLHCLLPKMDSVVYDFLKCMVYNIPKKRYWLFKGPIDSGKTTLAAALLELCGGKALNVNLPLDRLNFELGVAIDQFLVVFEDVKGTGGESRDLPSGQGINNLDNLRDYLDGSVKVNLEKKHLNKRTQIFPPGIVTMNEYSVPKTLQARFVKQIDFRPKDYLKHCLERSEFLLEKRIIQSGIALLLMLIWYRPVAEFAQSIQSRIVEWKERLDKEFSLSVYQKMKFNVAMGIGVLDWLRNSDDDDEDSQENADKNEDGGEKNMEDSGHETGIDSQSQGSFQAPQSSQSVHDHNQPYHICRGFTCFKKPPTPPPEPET
Sequence of Ion channel NompC (Q7T1G6 whole entry): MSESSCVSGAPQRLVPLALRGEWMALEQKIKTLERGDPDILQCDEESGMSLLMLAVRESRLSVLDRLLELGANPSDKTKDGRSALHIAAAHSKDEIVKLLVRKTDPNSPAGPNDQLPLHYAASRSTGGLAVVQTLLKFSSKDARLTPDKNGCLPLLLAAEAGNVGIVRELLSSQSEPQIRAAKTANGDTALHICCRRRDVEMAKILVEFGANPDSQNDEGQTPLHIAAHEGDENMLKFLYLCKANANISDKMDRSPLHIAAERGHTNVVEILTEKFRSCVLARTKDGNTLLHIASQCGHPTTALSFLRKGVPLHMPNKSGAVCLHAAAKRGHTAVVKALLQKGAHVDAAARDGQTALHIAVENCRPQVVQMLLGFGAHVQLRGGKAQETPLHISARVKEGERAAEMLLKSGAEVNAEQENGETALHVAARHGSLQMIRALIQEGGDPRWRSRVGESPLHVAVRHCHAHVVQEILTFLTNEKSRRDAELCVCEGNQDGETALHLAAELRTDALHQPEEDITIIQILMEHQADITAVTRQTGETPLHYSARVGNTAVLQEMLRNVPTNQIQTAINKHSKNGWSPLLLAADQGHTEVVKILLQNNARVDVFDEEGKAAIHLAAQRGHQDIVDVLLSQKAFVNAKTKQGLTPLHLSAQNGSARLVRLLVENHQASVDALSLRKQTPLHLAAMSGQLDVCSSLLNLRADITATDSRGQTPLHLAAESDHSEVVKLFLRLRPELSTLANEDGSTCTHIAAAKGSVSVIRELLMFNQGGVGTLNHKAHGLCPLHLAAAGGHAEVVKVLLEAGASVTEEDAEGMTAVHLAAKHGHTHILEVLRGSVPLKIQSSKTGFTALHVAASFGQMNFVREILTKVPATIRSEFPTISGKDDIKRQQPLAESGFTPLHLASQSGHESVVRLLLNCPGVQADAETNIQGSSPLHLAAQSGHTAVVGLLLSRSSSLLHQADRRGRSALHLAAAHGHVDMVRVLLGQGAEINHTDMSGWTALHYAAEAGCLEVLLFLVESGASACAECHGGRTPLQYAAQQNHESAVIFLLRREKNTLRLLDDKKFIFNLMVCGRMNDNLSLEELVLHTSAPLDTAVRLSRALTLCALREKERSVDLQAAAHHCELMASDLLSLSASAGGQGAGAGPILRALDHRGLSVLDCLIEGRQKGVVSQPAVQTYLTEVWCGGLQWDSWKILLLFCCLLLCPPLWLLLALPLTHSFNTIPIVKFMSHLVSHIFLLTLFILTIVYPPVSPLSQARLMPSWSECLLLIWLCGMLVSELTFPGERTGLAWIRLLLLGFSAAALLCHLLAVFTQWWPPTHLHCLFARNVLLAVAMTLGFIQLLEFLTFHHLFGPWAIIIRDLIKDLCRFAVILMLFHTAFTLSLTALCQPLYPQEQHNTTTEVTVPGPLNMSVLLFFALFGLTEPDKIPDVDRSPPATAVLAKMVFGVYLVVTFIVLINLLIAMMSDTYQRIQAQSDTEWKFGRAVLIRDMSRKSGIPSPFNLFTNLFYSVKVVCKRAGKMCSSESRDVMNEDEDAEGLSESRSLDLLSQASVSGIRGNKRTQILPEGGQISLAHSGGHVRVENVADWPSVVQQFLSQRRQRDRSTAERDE

With `COc1cccc(C(C)NC(=O)Nc2cccc(C(F)(F)F)c2)c1` (stereo not given) the IC50 [1] was 3.21 µM (active), the EC50 [2] was > 100 µM (inactive) and the IC50 [3] was > 100 µM (inactive).
For `O=C(CSc1nc2ccccc2o1)N/N=C/c1ccc(O)c(O)c1`, the IC50 (Large T antigen) was 6.69 µM (active), the EC50 [4] was 61.7 µM (active) and the AC50 [5] was 0.742 µM (active). For the same compound, the EC50 [2] was 63 µM (active) and the EC50 [6] was 69.9 µM (active).
For `O=C(N/N=C/c1cc(Cl)cc(Cl)c1O)c1ccncc1`, the EC50 (Ion channel NompC) was 6.49 µM (active), the EC50 (cells [7]) was 259 µM (active) and the EC50 (cells [8]) was > 350 µM (not active). The EC50 (Mucolipin-3) was 14.2 µM (not active) and the IC50 (Nonstructural protein 1) was 5.57 µM (active).
In the case of `Cc1cc(C)nc(SCC(=O)c2ccc(O)cc2)n1`, the IC50 [9] is reported as > 100 µM (inactive) and the IC50 [10] is reported as > 100 µM (inactive).
